Data as given in ChEMBL document CHEMBL1130502, “Lipopeptide antifungal agents: Amine conjugates of the semi-synthetic pneumocandins L-731,373 and L-733,560” (Bioorg Med Chem Lett, 1997).
≈ marks a conversion by molar mass, not a printed value.

Columns and labels:
[1] = species on record: Mus musculus; test: […] anti-candida activity expressed as ED99.9 in a mouse model of disseminated candidiasis (TOKA); format: functional
[2] = Acute toxicity in mice after intravenous administration; conditions: mouse, in vivo
[3] = species on record: Mus musculus; test: Percentage of mice with complete eradication of candida in kidneys; format: functional, Kidney
[4] = test system: Candida albicans; test: Tested for minimum fungicidal concentration (MFC) against Candida albicans (MY 1055); format: functional
[5] = target: 1,3-beta-glucan synthase (Candida glabrata, UniProt F5BCZ9); test: Inhibition of 1,3-beta-glucan synthase; design: species or system Candida glabrata CBS 138
Chain of 1,3-beta-glucan synthase (F5BCZ9 whole entry): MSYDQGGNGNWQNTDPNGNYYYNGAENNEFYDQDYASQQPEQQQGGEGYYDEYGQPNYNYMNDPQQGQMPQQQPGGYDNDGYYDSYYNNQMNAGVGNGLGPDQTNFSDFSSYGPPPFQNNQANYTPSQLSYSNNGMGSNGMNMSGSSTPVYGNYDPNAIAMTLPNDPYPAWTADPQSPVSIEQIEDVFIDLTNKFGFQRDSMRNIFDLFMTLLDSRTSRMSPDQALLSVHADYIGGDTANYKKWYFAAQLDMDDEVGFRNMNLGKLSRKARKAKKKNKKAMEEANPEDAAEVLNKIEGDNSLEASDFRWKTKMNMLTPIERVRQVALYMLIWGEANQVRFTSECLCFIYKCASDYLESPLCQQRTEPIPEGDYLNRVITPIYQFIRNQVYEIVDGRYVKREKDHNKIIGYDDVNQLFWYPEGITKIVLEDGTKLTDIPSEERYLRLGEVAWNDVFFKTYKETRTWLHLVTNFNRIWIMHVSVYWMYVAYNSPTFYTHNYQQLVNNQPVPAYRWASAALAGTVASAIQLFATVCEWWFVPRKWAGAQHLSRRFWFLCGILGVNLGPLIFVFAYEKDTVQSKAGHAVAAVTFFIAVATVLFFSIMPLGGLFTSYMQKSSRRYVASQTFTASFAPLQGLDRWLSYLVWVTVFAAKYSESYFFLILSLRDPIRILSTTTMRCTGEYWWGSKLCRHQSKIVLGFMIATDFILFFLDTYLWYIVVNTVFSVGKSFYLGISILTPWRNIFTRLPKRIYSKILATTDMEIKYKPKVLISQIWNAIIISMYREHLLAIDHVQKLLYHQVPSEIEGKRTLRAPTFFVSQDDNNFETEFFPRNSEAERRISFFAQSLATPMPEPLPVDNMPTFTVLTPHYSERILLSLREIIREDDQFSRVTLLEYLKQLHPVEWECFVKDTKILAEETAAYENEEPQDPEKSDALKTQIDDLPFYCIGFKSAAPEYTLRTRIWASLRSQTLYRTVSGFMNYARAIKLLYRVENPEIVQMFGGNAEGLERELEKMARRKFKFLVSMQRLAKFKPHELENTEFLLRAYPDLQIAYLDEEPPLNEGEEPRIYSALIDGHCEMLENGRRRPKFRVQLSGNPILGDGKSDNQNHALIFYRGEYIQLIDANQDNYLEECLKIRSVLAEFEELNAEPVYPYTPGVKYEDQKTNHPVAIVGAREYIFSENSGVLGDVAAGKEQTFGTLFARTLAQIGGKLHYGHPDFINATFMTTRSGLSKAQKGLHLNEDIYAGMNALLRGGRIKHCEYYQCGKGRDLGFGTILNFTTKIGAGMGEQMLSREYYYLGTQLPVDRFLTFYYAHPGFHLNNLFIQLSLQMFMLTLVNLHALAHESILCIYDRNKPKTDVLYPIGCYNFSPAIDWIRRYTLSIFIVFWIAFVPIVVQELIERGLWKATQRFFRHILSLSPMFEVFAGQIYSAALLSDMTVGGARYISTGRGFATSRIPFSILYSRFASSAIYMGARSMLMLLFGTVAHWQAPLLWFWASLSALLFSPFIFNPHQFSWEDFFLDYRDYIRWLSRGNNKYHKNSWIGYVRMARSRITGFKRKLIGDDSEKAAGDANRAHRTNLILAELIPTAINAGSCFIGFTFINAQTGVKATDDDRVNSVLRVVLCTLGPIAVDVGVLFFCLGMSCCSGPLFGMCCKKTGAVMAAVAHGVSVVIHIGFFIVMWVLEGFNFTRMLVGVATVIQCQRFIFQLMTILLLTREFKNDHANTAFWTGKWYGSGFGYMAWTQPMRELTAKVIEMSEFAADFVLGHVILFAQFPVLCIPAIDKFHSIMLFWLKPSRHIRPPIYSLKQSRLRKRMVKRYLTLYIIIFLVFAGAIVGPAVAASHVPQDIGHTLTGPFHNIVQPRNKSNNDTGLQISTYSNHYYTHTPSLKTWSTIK

[6] = test system: Clavispora lusitaniae; test: Tested for in vitro minimum fungicidal concentration (MFC) against C. lusitaniae; 0.5-2; format: functional
[7] = test system: Candida parapsilosis; test: Tested for in vitro minimum fungicidal concentration (MFC) against C. parapsilosis; 0.5-1; format: functional
[8] = test system: Candida albicans; test: Tested for in vitro minimum fungicidal concentration (MFC) against C. albicans; 0.06-0.5; format: functional
[9] = test system: Candida tropicalis; test: Tested for in vitro minimum fungicidal concentration (MFC) against C. tropicalis; 0.25-0.5; format: functional
[10] = test system: Nakaseomyces glabratus; test: Tested for in vitro minimum fungicidal concentration (MFC) against C. glabrata; 0.125-0.5; format: functional
[11] = test system: Pichia kudriavzevii; test: Tested for in vitro minimum fungicidal concentration (MFC) against C. krusei; 0.25-0.5; format: functional
[12] = test system: Kluyveromyces marxianus; test: Tested for in vitro minimum fungicidal concentration (MFC) against C. pseudotropicalis; 0.125-0.5; format: functional
[13] = test system: Meyerozyma guilliermondii; test: Tested for in vitro minimum fungicidal concentration (MFC) against C. guilliermondii; 0.125-0.5; format: functional
[14] = test system: Cryptococcus neoformans; test: Tested for in vitro minimum fungicidal concentration (MFC) against C. neoformans; 0.125-0.5; format: functional
[15] = test system: Mus musculus; test: In vivo effective intraperitoneal dose to achieve least 50% survival in a mouse model of disseminated aspergillosis; format: functional; conditions: ip
[16] = test system: Kluyveromyces marxianus; test: Tested for in vitro minimum fungicidal concentration (MFC) against C. pseudotropicalis; 0.06-0.5; format: functional
[17] = test system: Candida albicans; test: Tested for in vitro minimum fungicidal concentration (MFC) against C. albicans; 0.03-0.5; format: functional
[18] = test system: Candida tropicalis; test: Tested for in vitro minimum fungicidal concentration (MFC) against C. tropicalis; 0.06-1; format: functional
[19] = test system: Clavispora lusitaniae; test: Tested for in vitro minimum fungicidal concentration (MFC) against C. lusitaniae; 0.06-0.5; format: functional
[20] = test system: Nakaseomyces glabratus; test: Tested for in vitro minimum fungicidal concentration (MFC) against C. glabrata; 0.5-1; format: functional
[21] = test system: Cryptococcus neoformans; test: Tested for in vitro minimum fungicidal concentration (MFC) against C. neoformans; 8-32; format: functional
[22] = test system: Pichia kudriavzevii; test: Tested for in vitro minimum fungicidal concentration (MFC) against C. krusei; 1-2; format: functional
[23] = test system: Candida parapsilosis; test: Tested for in vitro minimum fungicidal concentration (MFC) against C. parapsilosis; 0.25-1; format: functional
[24] = test system: Meyerozyma guilliermondii; test: Tested for in vitro minimum fungicidal concentration (MFC) against C. guilliermondii; 0.5-4; format: functional

CCC(C)CC(C)CCCCCCCCC(=O)NC1C[C@@H](O)[C@@H](O)NC(=O)C2CN(C[C@@H]2O)C(=O)[C@H]([C@H](O)CCNC(=O)[C@@H](N)CCCCN)NC(=O)[C@H]([C@H](O)[C@@H](O)c2ccc(O)cc2)NC(=O)C2C[C@@H](O)CN2C(=O)[C@H]([C@@H](C)O)NC1=O (stereo not given in full)
ED99.9 [1]: 0.375 mg/kg | Dose [2]: 150 mg/kg | Sterilized [3]: 20% | MFC [4]: < 0.06 µg/mL | IC50 [5]: 0.01 µM

CCC(C)CC(C)CCCCCCCCC(=O)NC1C[C@@H](O)[C@@H](O)NC(=O)C2CN(C[C@@H]2O)C(=O)[C@H]([C@H](O)CCNC(=O)[C@@H](N)CCN)NC(=O)[C@H]([C@H](O)[C@@H](O)c2ccc(O)cc2)NC(=O)C2C[C@@H](O)CN2C(=O)[C@H]([C@@H](C)O)NC1=O (stereo not given in full)
ED99.9 [1]: 0.375 mg/kg | Dose [2]: > 250 mg/kg | Sterilized [3]: 60% | MFC [4]: 0.25 µg/mL (≈ 0.217 µM) | IC50 [5]: 0.06 µM

C[C@@H]1[C@H](O)[C@@H](C)/C=C/C=C/C=C/C=C/C=C/C=C/C=C/[C@H](O[C@@H]2O[C@H](C)[C@@H](O)[C@H](N)[C@@H]2O)C[C@@H]2O[C@](O)(C[C@@H](O)C[C@@H](O)[C@H](O)CC[C@@H](O)C[C@@H](O)CC(=O)O[C@H]1C)C[C@H](O)[C@H]2C(=O)O [AMPHOTERICIN B]
MFC90 [6]: 2 µg/mL (≈ 2.16 µM) | MFC90 [7]: 1 µg/mL (≈ 1.08 µM) | MFC90 [8]: 0.25 µg/mL (≈ 0.271 µM) | MFC90 [9]: 0.5 µg/mL (≈ 0.541 µM) | MFC90 [10]: 0.5 µg/mL (≈ 0.541 µM) | MFC90 [11]: 0.5 µg/mL (≈ 0.541 µM) | MFC90 [12]: 0.5 µg/mL (≈ 0.541 µM) | MFC90 [13]: 0.5 µg/mL (≈ 0.541 µM) | MFC90 [14]: 0.5 µg/mL (≈ 0.541 µM)

CCC(C)CC(C)CCCCCCCCC(=O)NC1C[C@@H](O)[C@@H](O)NC(=O)C2CN(C[C@@H]2O)C(=O)[C@H]([C@H](O)CCNC(=O)[C@@H](N)CN)NC(=O)[C@H]([C@H](O)[C@@H](O)c2ccc(O)cc2)NC(=O)C2C[C@@H](O)CN2C(=O)[C@H]([C@@H](C)O)NC1=O (stereo not given in full)
ED99.9 [1]: 1.5 mg/kg | Dose [2]: > 250 mg/kg | Sterilized [3]: 100% | MFC [4]: 1 µg/mL (≈ 0.879 µM) | IC50 [5]: 0.03 µM | ED50 [15]: > 1.25 mg/kg

CCC(C)CC(C)CCCCCCCCC(=O)NC1C[C@@H](O)[C@@H](O)NC(=O)C2CN(C[C@@H]2O)C(=O)[C@H]([C@H](O)CCNC(=O)CCCCCCN)NC(=O)[C@H]([C@H](O)[C@@H](O)c2ccc(O)cc2)NC(=O)C2C[C@@H](O)CN2C(=O)[C@H]([C@@H](C)O)NC1=O (stereo not given in full)
ED99.9 [1]: >1.5 mg/kg | Dose [2]: 200 mg/kg | Sterilized [3]: 0% | MFC [4]: 2 µg/mL (≈ 1.7 µM)

CCC(C)CC(C)CCCCCCCCC(=O)NC1C[C@@H](O)[C@@H](OCCN)NC(=O)C2CN(C[C@@H]2O)C(=O)[C@H]([C@H](O)CCNC(=O)[C@@H](N)CCCCN)NC(=O)[C@H]([C@H](O)[C@@H](O)c2ccc(O)cc2)NC(=O)C2C[C@@H](O)CN2C(=O)[C@H]([C@@H](C)O)NC1=O (stereo not given in full)
ED99.9 [1]: 0.09 mg/kg | Dose [2]: 60 mg/kg | Sterilized [3]: 0% | MFC [4]: 0.125 µg/mL (≈ 0.102 µM) | IC50 [5]: 0.003 µM | ED50 [15]: < 0.02 mg/kg

CCC(C)CC(C)CCCCCCCCC(=O)NC1C[C@@H](O)[C@@H](OCCN)NC(=O)C2CN(C[C@@H]2O)C(=O)[C@H]([C@H](O)CCN)NC(=O)[C@H]([C@H](O)[C@@H](O)c2ccc(O)cc2)NC(=O)C2C[C@@H](O)CN2C(=O)[C@H]([C@@H](C)O)NC1=O (stereo not given in full)
ED99.9 [1]: 0.09 mg/kg | Dose [2]: 30 mg/kg | MFC90 [16]: 0.5 µg/mL (≈ 0.457 µM) | MFC90 [17]: 0.5 µg/mL (≈ 0.457 µM) | MFC90 [18]: 0.5 µg/mL (≈ 0.457 µM) | Sterilized [3]: 80% | MFC90 [19]: 0.5 µg/mL (≈ 0.457 µM) | MFC90 [20]: 1 µg/mL (≈ 0.914 µM) | MFC90 [21]: 32 µg/mL (≈ 29.2 µM) | MFC90 [22]: 1 µg/mL (≈ 0.914 µM) | MFC [4]: 0.125 µg/mL (≈ 0.114 µM) | MFC90 [23]: 0.5 µg/mL (≈ 0.457 µM) | IC50 [5]: 0.001 µM | MFC90 [24]: 4 µg/mL (≈ 3.66 µM) | ED50 [15]: 0.03 mg/kg

CCC(C)CC(C)CCCCCCCCC(=O)NC1C[C@@H](O)[C@@H](O)NC(=O)C2CN(C[C@@H]2O)C(=O)[C@H]([C@H](O)CCNC(=O)CCCCN)NC(=O)[C@H]([C@H](O)[C@@H](O)c2ccc(O)cc2)NC(=O)C2C[C@@H](O)CN2C(=O)[C@H]([C@@H](C)O)NC1=O (stereo not given in full)
ED99.9 [1]: 1.5 mg/kg | Dose [2]: 250 mg/kg | Sterilized [3]: 0% | MFC [4]: 0.5 µg/mL (≈ 0.435 µM) | IC50 [5]: 0.02 µM
